Activity calls are given as the source filed them. Rule as the data show it, for most assays here: actives have a measured EC50 and inactives only a lower limit.
Legend:
[1] = NIH-3T3 fibroblast cytotoxicity, dose response, cytotoxicity control, cell-based, fluorescence, Alamar Blue, secondary assay (AID 2327); format: functional;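 also: NIH-3T3 mouse fibroblasts cultured with fluconazole at 8 µg/mL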
[2] = fluconazole-exposed Candida albicans growth modulators – fluorescence, retest, confirmation (AID 2467); format: functional, cell-based
[3] = cells; format: functional, cell-based
[4] = cells; format: functional, cell-based; remark: listed apart in the source
[5] = molecular target: Nonstructural protein 1 (Influenza A virus, UniProt Q194T2); format: functional, Influenza A virus (A/California/07/2009(H1N1))
Chain of Nonstructural protein 1 (Q194T2 whole entry): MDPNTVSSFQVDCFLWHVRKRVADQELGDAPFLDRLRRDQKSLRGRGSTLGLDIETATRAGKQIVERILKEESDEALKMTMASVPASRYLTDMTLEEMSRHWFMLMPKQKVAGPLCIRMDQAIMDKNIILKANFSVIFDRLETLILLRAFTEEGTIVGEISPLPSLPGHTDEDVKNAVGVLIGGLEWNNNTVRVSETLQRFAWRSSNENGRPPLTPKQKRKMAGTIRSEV

[6] = molecular target: T1, Ubiquitin-conjugating enzyme E2 N (Homo sapiens, UniProt P61088); format: functional;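 also: Dose-response confirmation in a TR-FRET assay detecting UBC13-driven polyubiquitin chain formation, inhibition measured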
T1 sequence (P61088 whole entry): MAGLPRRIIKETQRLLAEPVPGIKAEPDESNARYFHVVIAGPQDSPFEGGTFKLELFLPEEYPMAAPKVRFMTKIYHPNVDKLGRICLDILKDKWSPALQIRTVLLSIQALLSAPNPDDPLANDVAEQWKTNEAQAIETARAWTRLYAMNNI

[7] = viability of uninfected HEp-2 cells – cell-based, HTS, cytotoxicity control for RSV inhibitor project, dose response (AID 2410); format: functional; settings: human respiratory syncytial virus
[8] = test system: BJ; assay: BJ-TERT fibroblast viability loss – cell-based, RAS-independent, luminescence, dose response (AID 1933); format: functional; settings: Homo sapiens
[9] = test system: BJ; assay: cells; format: functional, cell-based; settings: Homo sapiens
[10] = test system: BJ; assay: BJ-TERT-LT-ST fibroblast viability loss – cell-based, RAS-independent, luminescence, dose response (AID 1935); format: functional; settings: Homo sapiens;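 also: BJ fibroblasts immortalized with TERT plus LT and ST oncogenes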
[11] = DRD fibroblast viability loss – cell-based, non-viral oncogenic, luminescence, dose response (AID 1934); format: functional; settings: Homo sapiens
[12] = molecular target: T2, Polyadenylate-binding protein 1 (Homo sapiens, UniProt P11940); assay: MLLE binding blockers, Cy5 peptide tracer – biochemical, fluorescence polarization, Cy5-PAM2 peptide, secondary, miRNA deadenylation inhibitor project, dose response (AID 602260); format: functional; settings: read-out: IC50_Mean
T2 sequence (P11940 whole entry, the tested form may be a part): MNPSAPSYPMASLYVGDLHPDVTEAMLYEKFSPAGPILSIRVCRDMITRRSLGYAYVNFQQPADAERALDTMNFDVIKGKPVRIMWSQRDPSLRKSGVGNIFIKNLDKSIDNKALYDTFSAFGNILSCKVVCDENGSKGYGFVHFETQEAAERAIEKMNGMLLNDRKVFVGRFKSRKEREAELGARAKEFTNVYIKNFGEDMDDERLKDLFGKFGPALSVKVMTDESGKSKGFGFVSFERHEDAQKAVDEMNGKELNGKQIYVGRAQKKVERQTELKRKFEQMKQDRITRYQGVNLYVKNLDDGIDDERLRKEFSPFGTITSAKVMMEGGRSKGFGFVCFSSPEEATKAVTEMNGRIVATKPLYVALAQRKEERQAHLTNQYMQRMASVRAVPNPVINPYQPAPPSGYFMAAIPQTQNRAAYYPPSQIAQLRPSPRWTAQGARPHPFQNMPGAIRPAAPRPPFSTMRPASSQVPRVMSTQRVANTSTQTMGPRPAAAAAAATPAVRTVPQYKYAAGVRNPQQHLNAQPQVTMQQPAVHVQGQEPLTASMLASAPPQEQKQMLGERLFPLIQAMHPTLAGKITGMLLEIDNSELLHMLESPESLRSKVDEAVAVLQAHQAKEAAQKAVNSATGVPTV

[13] = molecular target: T2, Polyadenylate-binding protein 1; assay: MLLE domain peptide-binding blockers, IC50 – biochemical, fluorescence polarization, FITC-PAM2 peptide, dose response (AID 602259); format: functional; settings: read-out: IC50_Mean
[14] = viability of PTEN-deleted HCT116 cells – cell-based, HCT116 PTEN knockout, dose response (AID 1047); format: functional;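 also: HCT116 colon tumor cells with PTEN knocked out; cells exposed to compound for 60 hours before readout; potency for loss of cell viability measured by luminescence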
[15] = test system: H9c2; assay: cells; format: functional, cell-based; settings: Rattus norvegicus, H9c2, Myocardium;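 also: confirmatory concentration-response retest of ultra-high-throughput screening hits for modulation of myocardial damage; cell death induced by hydrogen peroxide oxidative stress; compound pretreatment for 60 min then peroxide exposure for 2 h; potency is for protecting the cells against peroxide damage rather than for killing them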
[16] = molecular target: Cytochrome P450 2D6 (Homo sapiens, UniProt P10635);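 also: CYP2D6 member of a cytochrome P450 panel assay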
Chain of Cytochrome P450 2D6 (P10635 whole entry): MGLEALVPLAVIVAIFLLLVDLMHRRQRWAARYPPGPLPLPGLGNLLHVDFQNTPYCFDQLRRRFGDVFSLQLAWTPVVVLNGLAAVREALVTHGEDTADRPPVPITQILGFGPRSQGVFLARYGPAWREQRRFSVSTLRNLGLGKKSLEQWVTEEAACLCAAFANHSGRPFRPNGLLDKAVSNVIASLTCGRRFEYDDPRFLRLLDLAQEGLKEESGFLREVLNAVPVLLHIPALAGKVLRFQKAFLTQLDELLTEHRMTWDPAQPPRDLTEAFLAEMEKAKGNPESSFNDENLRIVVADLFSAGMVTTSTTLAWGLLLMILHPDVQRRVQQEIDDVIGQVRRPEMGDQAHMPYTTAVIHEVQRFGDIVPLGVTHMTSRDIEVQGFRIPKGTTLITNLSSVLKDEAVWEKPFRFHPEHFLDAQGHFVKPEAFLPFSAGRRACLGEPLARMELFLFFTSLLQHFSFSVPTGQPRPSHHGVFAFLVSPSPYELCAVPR

[17] = molecular target: FAD-linked sulfhydryl oxidase ALR (Homo sapiens, UniProt P55789); assay: ALR-catalysed DTT oxidation blockers – biochemical, H2O2 detection, luminescence, cherry-pick, dose response (AID 493248)
Chain of FAD-linked sulfhydryl oxidase ALR (P55789 whole entry): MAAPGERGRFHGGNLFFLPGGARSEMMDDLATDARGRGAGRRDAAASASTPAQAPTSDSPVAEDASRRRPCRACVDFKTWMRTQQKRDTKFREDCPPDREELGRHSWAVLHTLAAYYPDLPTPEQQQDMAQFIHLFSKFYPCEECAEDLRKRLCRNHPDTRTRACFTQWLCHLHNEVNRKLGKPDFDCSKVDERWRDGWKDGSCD

[18] = molecular target: Luciferin 4-monooxygenase (Photinus pyralis, UniProt P08659); assay: inhibition of purified Photinus pyralis luciferase – biochemical, luminescence, dose response (AID 1891)
Chain of Luciferin 4-monooxygenase (P08659 whole entry): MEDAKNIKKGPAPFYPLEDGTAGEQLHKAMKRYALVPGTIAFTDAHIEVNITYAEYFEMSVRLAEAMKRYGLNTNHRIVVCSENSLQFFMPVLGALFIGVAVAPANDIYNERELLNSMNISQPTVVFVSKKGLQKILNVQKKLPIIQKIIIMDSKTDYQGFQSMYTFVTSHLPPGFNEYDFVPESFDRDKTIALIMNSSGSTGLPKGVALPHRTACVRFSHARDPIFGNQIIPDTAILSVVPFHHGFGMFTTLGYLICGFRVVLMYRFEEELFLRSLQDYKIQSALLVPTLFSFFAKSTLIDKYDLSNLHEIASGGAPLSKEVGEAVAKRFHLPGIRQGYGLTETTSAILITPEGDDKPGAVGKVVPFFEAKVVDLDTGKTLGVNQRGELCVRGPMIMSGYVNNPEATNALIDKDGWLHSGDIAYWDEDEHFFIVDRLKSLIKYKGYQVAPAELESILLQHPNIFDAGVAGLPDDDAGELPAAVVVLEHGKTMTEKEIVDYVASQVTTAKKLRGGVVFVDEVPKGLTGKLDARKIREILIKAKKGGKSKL

[19] = Luminescence Cell-Based Dose Confirmation HTS to Identify Inhibitors of Platelet Dense Granule Release. [Related pubchem assays: 1663 (Primary HTS), 1678 (Summary of Project)]; format: functional

Compound: Cc1ccc(NC(=O)NNC(=O)c2cc3ccccc3cc2O)cc1C
- EC50 [1]: > 160 µM (inactive)
- EC50 [2]: > 38 µM (not active)

Compound: CCC(NCc1cc(OC)cc(OC)c1)=C1C(=O)NC(=O)NC1=O
- EC50 [3]: > 350 µM (not active)
- EC50 [4]: > 350 µM (not active)

Compound: Cc1ccc(S(=O)(=O)CCc2nnc(NC(=O)c3ccccn3)s2)cc1
- IC50 [5]: 10.2 µM (active)

Compound: O=C(NCCCN1CCOCC1)c1ccc2c(=O)n(Cc3cccc(Br)c3)c(=S)[nH]c2c1
- IC50 [6]: > 20 µM (inactive)

Compound: O=C(C1CCCN(S(=O)(=O)c2cccc3nonc23)C1)N1CCN(c2ccccc2Cl)CC1 (stereo not given)
- IC50 [5]: > 100 µM (active)

Compound: COC(=O)CCCC1=CC2=CC(=O)C(C)(OC(=O)c3cccs3)C(=O)C2=CN1Cc1ccc2c(c1)OCO2 (stereo not given)
- EC50 [3]: > 350 µM (not active)
- EC50 [4]: > 350 µM (not active)

Compound: Cc1cc(Cl)n2nc(C)c(-c3ccc(Cl)cc3)c2n1
- EC50 [1]: > 150 µM (inactive)
- CC50 [7]: 27.6 µM (active)
- EC50 [2]: > 38 µM (not active)

Compound: CCOc1ccccc1-c1nc(C(N)=O)c2nc(O)n(-c3ccc(F)cc3)c2n1
- IC50 [6]: > 20 µM (inactive)

Compound: O=C(NNC(=O)C1CCN(S(=O)(=O)c2ccc(Cl)cc2)CC1)c1ccc(S(=O)(=O)N2CCCCC2)cc1
- IC50 [6]: > 20 µM (inactive)

Compound: NS(=O)(=O)c1ccc(CNC(=O)c2csc3c2CCCC3)cc1
- EC50 [3]: > 350 µM (not active)
- EC50 [4]: > 350 µM (not active)

Compound: O=C(CSc1nc[nH]n1)NCCc1ccc(Cl)cc1Cl
- EC50 [3]: > 350 µM (not active)
- EC50 [4]: 149 µM (active)

Compound: CCOC(=O)c1cccc(NS(=O)(=O)c2c(C(=O)N3CCCCCC3)c(C)n(C)c2C)c1
- IC50 [6]: > 20 µM (inactive)

Compound: NC(=O)c1cc2c3ccccc3ccn2c1-c1ccccc1
- EC50 [8]: 0.305 µM (active)
- EC50 [9]: 27.4 µM (inconclusive)
- EC50 [10]: 5.08 µM (inconclusive)
- EC50 [11]: 0.244 µM (active)
- IC50 [12]: > 66 µM (inactive)
- IC50 [13]: 32.2 µM (inactive)

Compound: O=C(NCCCc1ccccc1)Nc1cccc(Cl)c1
- EC50 [1]: > 150 µM (inactive)
- EC50 [2]: > 38 µM (not active)
- EC50 [14]: 43.5 µM (active)

Compound: COc1nnc(-c2ccccc2)s1
- IC50 [12]: > 66 µM (inactive)
- IC50 [13]: > 66 µM (inactive)

Compound: COc1ccc(C(C(=O)NCc2ccccc2)N(Cc2cccs2)C(=O)c2cnccn2)cc1 (stereo not given)
- IC50 [15]: > 79 µM (inactive)
- AC50 [16]: 31.6 µM (inconclusive)

Compound: COc1cc(OC)c2c(-c3ccccc3)cc(=O)oc2c1C(CCN1CCCC(C)C1)c1ccc(N(C)C)cc1 (stereo not given)
- IC50 [5]: 11.4 µM (active)

Compound: O=C1/C(=C\c2cccnc2)SC(=S)N1C1CCS(=O)(=O)C1 (stereo not given)
- EC50 [8]: 22.5 µM (active)
- EC50 [9]: > 150 µM (inconclusive)
- EC50 [2]: 0.479 µM (active)
- EC50 [10]: > 150 µM (not active)
- EC50 [11]: 20.4 µM (active)

Compound: Cc1ccc(OC(=O)COc2ccccc2C)c(-n2nc3ccccc3n2)c1
- IC50 [12]: > 66 µM (inactive)
- IC50 [13]: > 66 µM (inactive)

Compound: CC1CCc2sc(-c3nnc(S)o3)cc2C1 (stereo not given)
- AC50 [17]: 1.2 µM (active)

Compound: CC(=O)Nc1cccc(NC(=O)CSc2nn3c(=O)c(C)nnc3s2)c1
- IC50 [5]: 9.96 µM (active)

Compound: Cn1c(N)c(N2CCN(c3ccccc3)CC2)c(=O)[nH]c1=O
- AC50 [17]: 3.9 µM (active)

Compound: OC(CNCc1cccc(Br)c1)c1ccccc1 (stereo not given)
- EC50 [18]: > 112 µM (not active)
- EC50 [19]: 20.7 µM (active)

From ChEMBL document CHEMBL1201862, “PubChem BioAssay data set” (2004)
